Measurements from patent US12377110B2, “Fospropofol methods and compositions” (Epalex Corporation, priority 2019, dated 2025).
Values joined by “and” are separate entries in the source; they are usually repeats but may differ in a detail not shown here. Equal values may be shown once. Where a name gives a salt, the structure may show the parent alone. Read-outs that look alike come from different tables or passages of the source.

Tests used:
[1] = type: physicochemical; conditions: for XRPD Analysis Post Dissolution: after IDR in faSSGf; for Average pH: during IDR run in 40 ml faSSGf media; for Average pH / IDR Average / IDR Duplicate: 37° C.; for IDR Average / IDR Duplicate: faSSGf media, 3 mm disc, 100 rpm; for IDR Average: average of duplicate; for IDR Duplicate: individual duplicate values
Procedure: Intrinsic Dissolution Rate was Determined in Simulated Intestinal Fluid at pH Base Buffer (FaSSGF):
Sodium chloride (2.0 g) and deionized water added to a 1000 ml volumetric flask, pH adjusted to 1.6 with concentrated hydrochloric […] acid, made up to volume with deionised water.
Phares SIF (simulated intestinal fluid) powder (0.06 g) was added to a 1 L volumetric flask and made to volume with base buffer.
(§1) Data were collected on a Sirius inform instrument fitted with a dual UV Dip Probe attachment and Ag/AgCI combination pH electrode. The electrode was calibrated using the four plus parameters derived from a blank titration. The base titrant was standardised by titration with TRIS. 0.5 M HCl and NaOH aqueous solutions were used as the acid and base titrants respectively for the testing. Stirring was facilitated by a dual overhead stirrer to allow thorough mixing within the vessel, and media was introduced via a capillary bundle attached to a dispensing bank comprised of six precision dispensing units. A Peltier heating jacket was used to maintain the temperature of the titration vessel. Discs were introduced to the vessel via the tablet picker housed in the probe arm, after the desired temperature of the media had been reached. Sirius inform Assay Design, Control and Refine software were used to design, run and refine data respectively.
One MEC data sets were then collected using five additions each of the water stock using 250, 500 and three times 750 μI aliquots, respectively. UV Spectra were then collected after each addition of the water stock to build a multi-point MEC calibration, using a 20 mm path length probe. The MEC data set was then imported into the dissolution data files in order to convert the UV absorbance measured to concentration. […] MEC data were collected in the dissolution media {faSSGf) and at 37° C. to match the dissolution experiments.
10-20 mg of the sample was compressed in a 3 mm disc recess, under 100 kg for 2 minutes, with greaseproof paper on the compression base, to form nondisintegrating discs. The discs were then plugged with a bung so that only one surface was exposed to the media during analysis and transferred to the Sirius inform dissolution apparatus. Analysis was performed at 37° C. in 40 ml faSSGf media for 1 hour with UV spectra collected every 30 seconds. A stir speed of 100 rpm was used with a 20 mm path length probe. The IDR was calculated based on the surface area of the 3 mm disc recess used (7.07 mm2 surface area). XRPD analysis was performed on all samples, both after compression of the material into the disc recess, and post dissolution analysis to observe any change in form. All analysis was performed using XRPD 2.
(§2) X-Ray Powder Diffraction (XRPD2): XRPD diffractograms were collected on a Bruker AXS C2 GADDS diffractometer using Cu Ka radiation (40 kV, 40 mA), an automated XYZ stage, a laser video microscope for auto sample positioning and a Vantec-500 2-dimensional area detector. X-ray optics consists of a single Gobel multilayer mirror coupled with a pinhole collimator of 0.3 mm. The beam divergence, i.e. the effective size of the X-ray beam on the sample, was approximately 4 mm. […] The sample was exposed to the X-ray beam for 120 seconds under ambient conditions. The software used for data collection and analysis was GADDS for Win7/XP and Diffrac Plus EVA respectively.

[2] = type: physicochemical; conditions: for XRPD Analysis Post Dissolution: after IDR at pH 4.5; for Average pH: during IDR run, 36 ml water and 4 ml GI media; for Average pH / IDR Average / IDR Duplicate: pH set to 4.5, 37° C.; for IDR Average / IDR Duplicate: 3 mm disc, 100 rpm; for IDR Average: average of duplicate; for IDR Duplicate: individual duplicate values
Procedure: Intrinsic Dissolution Rate was measure in GI tract buff (pH—4.5 buffer): 2.99 g sodium acetate trihydrate was dissolved in 14.0 ml 2N acetic acid in a 1000 ml volumetric flask, and then made to volume with deionised water.
as §1, with “DipProbe” for “Dip Probe”, “NaOHaqueous” for “NaOH aqueous”
One MEC data sets were then collected using five additions each of the water stock using 250, 500 and three times 750 μI aliquots, respectively. UV Spectra were then collected after each addition of the water stock to build a multi-point MEC calibration, using a 20 mm path length probe. The MEC data set was then imported into the dissolution data files in order to convert the UV absorbance measured to concentration. […] MEC data were collected at 37° C. to match the dissolution experiments.
Intrinsic Dissolution Rate (IDR): Approximately. 10-20 mg of the sample was compressed in a 3 mm disc recess, under 100 kg for 2 minutes, with greaseproof paper on the compression base, to form nondisintegrating discs. The discs were then plugged with a bung so that only one surface was exposed to the media during analysis and transferred to the Sirius inform dissolution apparatus. Analysis was performed at 37° C. in 36 ml water and 4 ml GI media with the pH set to 4.5, for 1 hour with UV spectra collected every 10 seconds. A stir speed of 100 rpm was used with a 20 mm path length probe. The IDR was calculated based on the surface area of the 3 mm disc recess used (7.07 mm2 surface area). XRPD analysis was performed on all samples, both after compression of the material into the disc recess, and post dissolution analysis to observe any change in form. All analysis was performed using XRPD 2.
as §2

[3] = XRPD after 7 days storage at 40° C./75% RH; type: physicochemical
Procedure: XRPD was again taken after 7 days storage at 40° C./75% RH. Form II of the diethylamine salt and Form II of the ethanolamine salt were formed by conversion of Form I of the respective salts after 7 days storage at 40° C./75% RH.
Form II of the calcium salt was produced from Form I of the calcium salt after 7 days storage at 40° C./75% RH.

Compound	XRPD Analysis Post Dissolution [1]	Average pH [1]	IDR Average [1] [mg/min/cm^2]	IDR Duplicate [1]	XRPD Analysis Post Dissolution [2]	Average pH [2]	IDR Average [2] [mg/min/cm^2]	IDR Duplicate [2]	Solid form (XRPD) after storage, starting from Form I [3]
[Ca] [Calcium]	Amorphous	1.8	1.2	1.15 mg/min/cm^2 and 1.14 mg/min/cm^2	Amorphous	4.5	0.44	0.51 mg/min/cm^2 and 0.37 mg/min/cm^2	
[Mg] [Magnesium]	Amorphous	1.8	1.6	1.51 mg/min/cm^2 and 1.67 mg/min/cm^2	Amorphous	4.5	0.46	0.47 mg/min/cm^2 and 0.44 mg/min/cm^2	
CC(C)c1cccc(C(C)C)c1OCOP(=O)(O)O [calcium salt of fospropofol (Form I)]									Form II
NCCN [Ethylene Diamine]	Amorphous	1.6	1.2	1.16 mg/min/cm^2 and 1.29 mg/min/cm^2	Amorphous	4.5	0.77	0.76 mg/min/cm^2 and 0.78 mg/min/cm^2	
Sodium		1.8	43	41.5 mg/min/cm^2 and 44.2 mg/min/cm^2		4.6	37	38.04 mg/min/cm^2 and 35.67 mg/min/cm^2	
Zinc	Amorphous	1.8	1.3	1.22 mg/min/cm^2 and 1.31 mg/min/cm^2	Amorphous	4.5	0.18	0.19 mg/min/cm^2 and 0.18 mg/min/cm^2	
